# BindingDB's records for doi:10.1021/jm060797q (Teikyo University, 2006)
# Experiment: Antagonist activity against 1-alpha,25-dihydroxy vitamin D3-induced HL60 cell differentiation by NBT reduction method
row,SMILES,IC50
1,C=C1C(=O)O[C@H](C[C@@H](C)[C@H]2CC[C@H]3/C(=C/C=C4/C[C@@H](O)C[C@H](O)C4=C)CCC[C@]23C)[C@@H]1CC,8.6 nM
2,C=C1/C(=C\C=C2/CCC[C@]3(C)[C@@H]([C@H](C)C[C@@H]4OC(=O)C(=C)[C@H]4CCCC)CC[C@@H]23)C[C@@H](O)[C@H](C)[C@@H]1O,6.7 nM
3,C=C1/C(=C\C=C2/CCC[C@]3(C)[C@@H]([C@H](C)C[C@H]4OC(=O)C(=C)[C@H]4CC)CC[C@@H]23)C[C@@H](O)[C@H](CCCO)[C@@H]1O,8.4 nM
4,C=C1/C(=C\C=C2/CCC[C@]3(C)[C@@H]([C@H](C)C[C@@H]4OC(=O)C(=C)[C@@H]4CC(C)C)CC[C@@H]23)C[C@@H](O)[C@H](CCCO)[C@@H]1O,9.3 nM
5,C=C1/C(=C\C=C2/CCC[C@]3(C)[C@@H]([C@H](C)C[C@H]4OC(=O)C(=C)[C@H]4CCC)CC[C@@H]23)C[C@@H](O)[C@H](OCCCO)[C@@H]1O,6.3 nM
6,C=C1C(=O)O[C@@H](C[C@@H](C)[C@H]2CC[C@H]3/C(=C/C=C4/C[C@@H](O)C[C@H](O)C4=C)CCC[C@]23C)[C@@H]1CC,8.6 nM
7,C=C1/C(=C\C=C2/CCC[C@]3(C)[C@@H]([C@H](C)C[C@H]4OC(=O)C(=C)[C@@H]4CC(C)C)CC[C@@H]23)C[C@@H](O)[C@H](C)[C@@H]1O,11 nM
8,C=C1/C(=C\C=C2/CCC[C@]3(C)[C@@H]([C@H](C)C[C@H]4OC(=O)C(=C)[C@@H]4CCC)CC[C@@H]23)C[C@@H](O)C[C@@H]1O,6 nM
9,C=C1/C(=C\C=C2/CCC[C@]3(C)[C@@H]([C@H](C)C[C@@H]4OC(=O)C(=C)[C@H]4CCCC)CC[C@@H]23)C[C@@H](O)[C@H](OCCCO)[C@@H]1O,8.8 nM
10,C=C1/C(=C\C=C2/CCC[C@]3(C)[C@@H]([C@H](C)C[C@H]4OC(=O)C(=C)[C@@H]4CC)CC[C@@H]23)C[C@@H](O)[C@H](C)[C@@H]1O,6.7 nM
11,C=C1/C(=C\C=C2/CCC[C@]3(C)[C@@H]([C@H](C)C[C@@H]4OC(=O)C(=C)[C@H]4CC(C)C)CC[C@@H]23)C[C@@H](O)[C@H](C)[C@@H]1O,11 nM
12,C=C1/C(=C\C=C2/CCC[C@]3(C)[C@@H]([C@H](C)C[C@H]4OC(=O)C(=C)[C@@H]4C)CC[C@@H]23)C[C@@H](O)C[C@@H]1O,11 nM
13,C=C1C(=O)O[C@@H](C[C@@H](C)[C@H]2CC[C@H]3/C(=C/C=C4/C[C@@H](O)[C@H](CCCO)[C@H](O)C4=C)CCC[C@]23C)[C@@H]1C,6.2 nM
14,C=C1/C(=C\C=C2/CCC[C@]3(C)[C@@H]([C@H](C)C[C@@H]4OC(=O)C(=C)[C@@H]4CC)CC[C@@H]23)C[C@@H](O)[C@H](C)[C@@H]1O,6.7 nM
15,C=C1/C(=C\C=C2/CCC[C@]3(C)[C@@H]([C@H](C)C[C@H]4OC(=O)C(=C)[C@H]4CCCC)CC[C@@H]23)C[C@@H](O)[C@H](C)[C@@H]1O,6.7 nM
16,C=C1/C(=C\C=C2/CCC[C@]3(C)[C@@H]([C@H](C)C[C@@H]4OC(=O)C(=C)[C@@H]4CCCC)CC[C@@H]23)C[C@@H](O)C[C@@H]1O,8.2 nM
17,C=C1/C(=C\C=C2/CCC[C@]3(C)[C@@H]([C@H](C)C[C@@H]4OC(=O)C(=C)[C@H]4CC)CC[C@@H]23)C[C@@H](O)[C@H](C)[C@@H]1O,6.7 nM
18,C=C1C(=O)O[C@@H](C[C@@H](C)[C@H]2CC[C@H]3/C(=C/C=C4/C[C@@H](O)C[C@H](O)C4=C)CCC[C@]23C)[C@@H]1C,7.7 nM
19,C=C1/C(=C\C=C2/CCC[C@]3(C)[C@@H]([C@H](C)C[C@H]4OC(=O)C(=C)[C@H]4CC(C)C)CC[C@@H]23)C[C@@H](O)[C@H](CCCO)[C@@H]1O,9.3 nM
20,C=C1/C(=C\C=C2/CCC[C@]3(C)[C@@H]([C@H](C)C[C@H]4OC(=O)C(=C)[C@H]4CC)CC[C@@H]23)C[C@@H](O)[C@H](C)[C@@H]1O,6.7 nM
21,C=C1/C(=C\C=C2/CCC[C@]3(C)[C@@H]([C@H](C)C[C@@H]4OC(=O)C(=C)[C@@H]4CC)CC[C@@H]23)C[C@@H](O)[C@H](CCCO)[C@@H]1O,8.4 nM
22,C=C1/C(=C\C=C2/CCC[C@]3(C)[C@@H]([C@H](C)C[C@@H]4OC(=O)C(=C)[C@@H]4CC(C)C)CC[C@@H]23)C[C@@H](O)C[C@@H]1O,9.5 nM

row,SMILES,IC50
1,C=C1C(=O)O[C@@H](C[C@@H](C)[C@H]2CC[C@H]3/C(=C/C=C4/C[C@@H](O)[C@H](OCCCO)[C@H](O)C4=C)CCC[C@]23C)[C@@H]1C,6.1 nM
2,C=C1/C(=C\C=C2/CCC[C@]3(C)[C@@H]([C@H](C)C[C@H]4OC(=O)C(=C)[C@@H]4CCCC)CC[C@@H]23)C[C@@H](O)C[C@@H]1O,8.2 nM
3,C=C1C(=O)O[C@H](C[C@@H](C)[C@H]2CC[C@H]3/C(=C/C=C4/C[C@@H](O)[C@H](C)[C@H](O)C4=C)CCC[C@]23C)[C@@H]1C,8.1 nM
4,C=C1/C(=C\C=C2/CCC[C@]3(C)[C@@H]([C@H](C)C[C@@H]4OC(=O)C(=C)[C@H]4CC)CC[C@@H]23)C[C@@H](O)[C@H](OCCCO)[C@@H]1O,8.4 nM
5,C=C1/C(=C\C=C2/CCC[C@]3(C)[C@@H]([C@H](C)C[C@H]4OC(=O)C(=C)[C@H]4CC)CC[C@@H]23)C[C@@H](O)[C@H](OCCCO)[C@@H]1O,8.4 nM
6,C=C1C(=O)O[C@@H](C[C@@H](C)[C@H]2CC[C@H]3/C(=C/C=C4/C[C@@H](O)C[C@H](O)C4=C)CCC[C@]23C)[C@@H]1CC(C)C,9.3 nM
7,C=C1/C(=C\C=C2/CCC[C@]3(C)[C@@H]([C@H](C)C[C@H]4OC(=O)C(=C)[C@H]4CC(C)C)CC[C@@H]23)C[C@@H](O)[C@H](OCCCO)[C@@H]1O,9.3 nM
8,C=C1/C(=C\C=C2/CCC[C@]3(C)[C@@H]([C@H](C)C[C@H]4OC(=O)C(=C)C4(C)C)CC[C@@H]23)C[C@@H](O)C[C@@H]1O,6 nM
9,C=C1/C(=C\C=C2/CCC[C@]3(C)[C@@H]([C@H](C)C[C@@H]4OC(=O)C(=C)[C@H]4CC(C)C)CC[C@@H]23)C[C@@H](O)[C@H](CCCO)[C@@H]1O,9.3 nM
10,C=C1/C(=C\C=C2/CCC[C@]3(C)[C@@H]([C@H](C)C[C@H]4OC(=O)C(=C)[C@@H]4C)CC[C@@H]23)C[C@@H](O)[C@H](CCCO)[C@@H]1O,6.2 nM
11,C=C1/C(=C\C=C2/CCC[C@]3(C)[C@@H]([C@H](C)C[C@H]4OC(=O)C(=C)[C@H]4CCC)CC[C@@H]23)C[C@@H](O)[C@H](CCCO)[C@@H]1O,6.3 nM
12,C=C1/C(=C\C=C2/CCC[C@]3(C)[C@@H]([C@H](C)C[C@@H]4OC(=O)C(=C)[C@@H]4CCC)CC[C@@H]23)C[C@@H](O)[C@H](CCCO)[C@@H]1O,6.3 nM
13,C=C1/C(=C\C=C2/CCC[C@]3(C)[C@@H]([C@H](C)C[C@H]4OC(=O)C(=C)[C@H]4CCC)CC[C@@H]23)C[C@@H](O)[C@H](C)[C@@H]1O,6.3 nM
14,C=C1/C(=C\C=C2/CCC[C@]3(C)[C@@H]([C@H](C)C[C@@H]4OC(=O)C(=C)[C@@H]4CC)CC[C@@H]23)C[C@@H](O)C[C@@H]1O,8.6 nM
15,C=C1/C(=C\C=C2/CCC[C@]3(C)[C@@H]([C@H](C)C[C@@H]4OC(=O)C(=C)[C@H]4CCC)CC[C@@H]23)C[C@@H](O)[C@H](OCCCO)[C@@H]1O,6.3 nM
16,C=C1C(=O)O[C@@H](C[C@@H](C)[C@H]2CC[C@H]3/C(=C/C=C4/C[C@@H](O)C[C@H](O)C4=C)CCC[C@]23C)[C@@H]1CCC,6 nM
17,C=C1C(=O)O[C@H](C[C@@H](C)[C@H]2CC[C@H]3/C(=C/C=C4/C[C@@H](O)[C@H](CCCO)[C@H](O)C4=C)CCC[C@]23C)[C@@H]1C,6.2 nM
18,C=C1/C(=C\C=C2/CCC[C@]3(C)[C@@H]([C@H](C)C[C@@H]4OC(=O)C(=C)[C@H]4CC(C)C)CC[C@@H]23)C[C@@H](O)[C@H](OCCCO)[C@@H]1O,9.3 nM
19,C=C1/C(=C\C=C2/CCC[C@]3(C)[C@@H]([C@H](C)C[C@@H]4OC(=O)C(=C)[C@@H]4C)CC[C@@H]23)C[C@@H](O)[C@H](C)[C@@H]1O,6.8 nM
20,C=C1C(=O)O[C@@H](C[C@@H](C)[C@H]2CC[C@H]3/C(=C/C=C4/C[C@@H](O)C[C@H](O)C4=C)CCC[C@]23C)[C@@H]1CCCC,8.2 nM
21,C=C1C(=O)O[C@H](C[C@@H](C)[C@H]2CC[C@H]3/C(=C/C=C4/C[C@@H](O)C[C@H](O)C4=C)CCC[C@]23C)[C@@H]1CCCC,8.2 nM
